{
  "source": "patent US8921533B2",
  "about": "“Glycosylated valproic acid analogs and uses thereof” (Chromatin Technologies, priority 2011, dated 2014)",
  "origin": "cited, not measured here",
  "system": "sensitised guinea pig tracheal rings",
  "settings": "also contraction induced by histamine, 5-hydroxytryptamine and carbachol",
  "note": "Read-outs that look alike come from different tables or passages of the source.",
  "data": [
    {"smiles": "CCCC(=O)[O-].[Na+]", "note": "[sodium butyrate]", "values": [
      {"measurement": "inhibition of antigen-induced contraction of tracheal rings", "setting": "1 mM", "value": "weak inhibitors"}
    ]},
    {"smiles": "CCCC(CCC)C(=O)[O-].[Na+]", "note": "[sodium valproate]", "values": [
      {"measurement": "inhibition of antigen-induced contraction of tracheal rings", "setting": "100 microM", "value": "weak inhibitors"}
    ]}
  ]
}
